Laboratory results reported in US20190374526A1, “Substituted Heterocyclic Compounds as Inhibitors of PRDM9” (Merck Sharp & Dohme Corp., priority 2018, published 2019).
Structures can show the parent of a compound that is named as a salt.

Target: T1, hPRDM9 (amino acids 195-385) (Homo sapiens, UniProt Q9NQV7)
T1 construct: 1.25 nM hPRDM9 (amino acids 195-385)
T1 sequence (Q9NQV7 195-385): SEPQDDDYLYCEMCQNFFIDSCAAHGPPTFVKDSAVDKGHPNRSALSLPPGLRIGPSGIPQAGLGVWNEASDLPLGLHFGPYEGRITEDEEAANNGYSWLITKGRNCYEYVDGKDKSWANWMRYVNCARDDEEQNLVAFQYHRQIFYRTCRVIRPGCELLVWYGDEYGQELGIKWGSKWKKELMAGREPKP
Assay: PRDM9 biochemical assay (radiometric, 3[H] methyl transfer from SAM to biotinylated histone H3 peptide)
Conditions: 1 nM hPRDM9, 1 μM biotinylated H3(1-25)K4 peptide, 5 μM 3[H]-SAM, 55 μM un-labeled SAM, 25° C., 30 minutes
Outline: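 Radiometric assay of ³H-methyl transfer to biotinylated H3(1-25)K4 peptide, with final concentrations 1 nM hPRDM9 (195-385), 1 μM peptide, 5 μM ³H-SAM and 55 μM unlabeled SAM. Run in pH 8.5 Tris buffer for 30 min at 25° C, quenched with guanidine-HCl and captured on streptavidin Flashplates. IC50 from four-parameter fit relative to 0.5% DMSO controls.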

| IC50 [nM] | SMILES |
| --- | --- |
| 83 | CNCc1cc(OC)cc(-c2noc(N3CCN(C)C4(CCN(c5ccnc(C)c5)CC4)C3)n2)c1 [Compound 245, 1-(3-methoxy-5-(5-(1-methyl-9-(2-methylpyridin-4-yl)-1,4,9-triazaspiro[5.5]undecan-4-yl)-1,2,4-oxadiazol-3-yl)phenyl)-N-methylmethanamine, HCl] |
| 83 | COc1cc(C(N)=O)cc(-c2noc(N3CCN(C)C4(CCN(c5ccnc(C)c5)CC4)C3)n2)c1 [Compound 246, 3-methoxy-5-(5-(1-methyl-9-(2-methylpyridin-4-yl)-1,4,9-triazaspiro[5.5]undecan-4-yl)-1,2,4-oxadiazol-3-yl)benzamide] |
| 650 | COc1cc(OC)cc(-c2noc(NCC3(O)CN(c4ccnc(C)c4)C3)n2)c1 [Compound 247, 3-(((3-(3,5-dimethoxyphenyl)-1,2,4-oxadiazol-5-yl)amino)methyl)-1-(2-methylpyridin-4-yl)azetidin-3-ol] |
